In brackets after ≈: the same amount, converted by molar mass. Non-standard residues stand in square brackets, D forms with d. Residues, ends and D or L forms follow the SMILES beside them.
Key:
A. baumannii strain 649 = test: MIC, microtiter dilution; assay type: cell-based, Acinetobacter baumannii; conditions: source blood; Mueller-Hinton medium, 37 °C, 24 h, 5 × 10^5 CFU/mL; three sets of determinations
Excerpt: (§1) All the A. baumannii strains used in this study were (1) obtained from the collection of Dr. Anthony A. Campagnari at the University of Buffalo and originally isolated from different patients and organs/tissues (strain 649, blood; strain 689, groin; strain 759, gluteus; strain 821, urine; strain 884, axilla; strain 899, perineum; strain 964, throat; strain 985, pleural fluid and strain 1012, sputum); (2) were purchased from the American Type Culture Collection (ATCC, Manassas, VA, USA) (strain ATCC 17978, fatal meningitis; and strain ATCC 19606, urine).
(§2) The minimal inhibitory concentration (MIC) is defined as the lowest peptide concentration that inhibited bacterial growth. MICs were measured by a standard microtiter dilution method in Mueller Hinton (MH) medium. Briefly, cells were grown overnight at 37 °C in MH broth and were diluted in the same medium. Serial dilutions of the peptides were added to the microtiter plates in a volume of 50 µL, followed by the addition of 50 µL of bacteria to give a final inoculum of 5 × 10^5 colony-forming units (CFU)/mL. The plates were incubated at 37 °C for 24 h, and the MICs were determined.

A. baumannii strain 759 = test: MIC, microtiter dilution; assay type: cell-based, Acinetobacter baumannii; conditions: source gluteus; Mueller-Hinton medium, 37 °C, 24 h, 5 × 10^5 CFU/mL; three sets of determinations
Excerpt: as §1, §2

A. baumannii strain 884 = test: MIC, microtiter dilution; assay type: cell-based, Acinetobacter baumannii; conditions: source axilla; Mueller-Hinton medium, 37 °C, 24 h, 5 × 10^5 CFU/mL; three sets of determinations
Excerpt: as §1, §2

A. baumannii strain 821 = test: MIC, microtiter dilution; assay type: cell-based, Acinetobacter baumannii; conditions: source urine; Mueller-Hinton medium, 37 °C, 24 h, 5 × 10^5 CFU/mL; three sets of determinations
Excerpt: as §1, §2

[1] = tested on: A. baumannii strain ATCC 19606; test: MIC, microtiter dilution; assay type: cell-based, Acinetobacter baumannii; conditions: source urine; Mueller-Hinton medium, 37 °C, 24 h, 5 × 10^5 CFU/mL; three sets of determinations
Excerpt: as §1, §2

[2] = tested on: Acinetobacter baumannii (11 different isolates); assay type: cell-based; conditions: geometric mean of the MIC values from 11 different isolates of A. baumannii; Table 3A
Excerpt: as §1, §2
Antibacterial activities against six strains of P. aeruginosa and eleven strains of A. baumannii are compared in Table 3. Geometric mean of MIC values was calculated to provide an overall view of antimicrobial activity of different analogs. It is clear that our peptides were effective in killing the microorganisms tested. Compared to a dramatic reduction in hemolytic activity, antibacterial activity of D-piscidin 1 and D-dermaseptin S4 analogs against eleven strains of A. baumannii maintained the same level (within 2-fold) upon the substitution of “specificity determinant(s)” (Table 3).

[3] = tested on: P. aeruginosa strain PA14; conditions: Mueller-Hinton medium, 37 °C, 24 h, 5 × 10^5 CFU/mL; three sets of determinations
Excerpt: (§3) P. aeruginosa strains used are as follows: strain PAO1 was isolated from a human wound in 1955 in Australia; strain WR5 was isolated from a burn patient at Walter Reed Army Hospital, Washington, DC, USA, in 1976 and is a natural toxA^− mutant, but is virulent in experimental mouse models; strain PAK was originally isolated at Memorial University, St. John’s, Newfoundland, Canada, and is widely used in the analysis of pili; strain PA14 was originally isolated as a clinical isolate in 1995 at the Massachusetts General Hospital, Boston, MA, USA and is virulent in a variety of plant and animal models of infection; strain M2 was originally isolated in 1975 from the gastrointestinal tract of a healthy CF1 mouse, University of Cincinnati College of Medicine, and Shriners Burns Institute, Cincinnati, OH, USA and is virulent in a burn mouse model of P. aeruginosa infection; and strain CP204 was isolated from a cystic fibrosis patient in 1989 at the National Jewish Medical and Research Center, Denver, CO, USA. All strains have been maintained at −80 °C in the laboratory of Michael Vasil, University of Colorado, School of Medicine.
(§4) The minimal inhibitory concentration (MIC) is defined as the lowest peptide concentration that inhibited bacterial growth. MICs were measured by a standard microtiter dilution method in Mueller Hinton (MH) medium. Briefly, cells were grown overnight at 37 °C in MH broth and were diluted in the same medium. […] The plates were incubated at 37 °C for 24 h, and the MICs were determined.

P. aeruginosa strain WR5 = conditions: source burn patient; Mueller-Hinton medium, 37 °C, 24 h, 5 × 10^5 CFU/mL; three sets of determinations
Excerpt: as §3, §4

[4] = tested on: P. aeruginosa strain CP204; conditions: source cystic fibrosis patient; Mueller-Hinton medium, 37 °C, 24 h, 5 × 10^5 CFU/mL; three sets of determinations
Excerpt: as §3, §4

P. aeruginosa strain M2 = conditions: source burn mouse model; Mueller-Hinton medium, 37 °C, 24 h, 5 × 10^5 CFU/mL; three sets of determinations
Excerpt: as §3, §4

[5] = tested on: P. aeruginosa strain PAO1; conditions: source human wound; Mueller-Hinton medium, 37 °C, 24 h, 5 × 10^5 CFU/mL; three sets of determinations
Excerpt: as §3, §4

P. aeruginosa strain PAK = conditions: Mueller-Hinton medium, 37 °C, 24 h, 5 × 10^5 CFU/mL; three sets of determinations
Excerpt: as §3, §4

A. baumannii strain 1012 = assay type: cell-based, Acinetobacter baumannii; conditions: source sputum; Mueller-Hinton medium, 37 °C, 24 h, 5 × 10^5 CFU/mL; three sets of determinations
Excerpt: as §1, §2

[6] = tested on: A. baumannii strain ATCC 17978; assay type: cell-based, Acinetobacter baumannii; conditions: ATCC 17978, 24 h
Excerpt: as §1, §2

A. baumannii strain 964 = assay type: cell-based, Acinetobacter baumannii; conditions: source throat; Mueller-Hinton medium, 37 °C, 24 h, 5 × 10^5 CFU/mL; three sets of determinations
Excerpt: as §1, §2

A. baumannii strain 985 = assay type: cell-based, Acinetobacter baumannii; conditions: source pleural fluid; Mueller-Hinton medium, 37 °C, 24 h, 5 × 10^5 CFU/mL; three sets of determinations
Excerpt: as §1, §2

A. baumannii strain 899 = assay type: cell-based, Acinetobacter baumannii; conditions: source perineum; Mueller-Hinton medium, 37 °C, 24 h, 5 × 10^5 CFU/mL; three sets of determinations
Excerpt: as §1, §2

A. baumannii strain 689 = assay type: cell-based, Acinetobacter baumannii; conditions: source groin; Mueller-Hinton medium, 37 °C, 24 h, 5 × 10^5 CFU/mL; three sets of determinations
Excerpt: as §1, §2

[7] = tested on: Pseudomonas aeruginosa (6 different isolates); conditions: geometric mean of the MIC values from 6 different isolates of P. aeruginosa; Table 3B
Excerpt: as §3, §4
Geometric mean of MIC values was calculated to provide an overall view of antimicrobial activity of different analogs.

human erythrocytes = test: Hemolytic activity (HC50); assay type: cell-based; conditions: for Hemolytic activity HC50: concentration giving 50% hemolysis after 18 h at 37 °C, 1% human erythrocytes in PBS pH 7.4, hemoglobin release at 570 nm, 100% control water (Figure 7)
Method: Hemoglobin release was determined spectrophotometrically at 570 nm.
From these plots, the HC50 values, the peptide concentration that produces 50% hemolysis of human red blood cells after 18 hours in the standard microtiter dilution method was determined.

Row | SMILES | MIC 649 (A. baumannii strain 649) | MIC 759 (A. baumannii strain 759) | MIC 884 (A. baumannii strain 884) | MIC 821 (A. baumannii strain 821) | MIC ATCC19606 [1] | MIC GM [2] | MIC PA14 [3] | MIC WR5 (P. aeruginosa strain WR5) | MIC CP204 [4] | MIC M2 (P. aeruginosa strain M2) | MIC PAO1 [5] | MIC PAK (P. aeruginosa strain PAK) | MIC 1012 (A. baumannii strain 1012) | MIC ATCC17978 [6] | MIC 964 (A. baumannii strain 964) | MIC 985 (A. baumannii strain 985) | MIC 899 (A. baumannii strain 899) | MIC 689 (A. baumannii strain 689) | MIC GM [7] | Hemolytic activity HC50 (human erythrocytes) | other results
1 | CC[C@@H](C)[C@@H](NC(=O)CNC(=O)[C@@H](CCCNC(=N)N)NC(=O)[C@@H](Cc1ccccc1)NC(=O)[C@H](NC(=O)[C@@H](Cc1c[nH]cn1)NC(=O)[C@@H](Cc1c[nH]cn1)NC(=O)[C@@H](Cc1ccccc1)NC(=O)[C@H](N)Cc1ccccc1)[C@H](C)CC)C(=O)N[C@@H](C(=O)N[C@H](Cc1c[nH]cn1)C(=O)N[C@@H](C(=O)N[C@H](CCCCN)C(=O)N[C@H](CCCCN)C(=O)N[C@@H](C(=O)N[C@@H](C(=O)N[C@H](Cc1c[nH]cn1)C(=O)N[C@H](CCCNC(=N)N)C(=O)N[C@H](CC(C)C)C(=O)N[C@@H](C(=O)N[C@@H](C(=O)NCC(N)=O)[C@H](C)O)C(C)C)[C@H](C)CC)[C@H](C)O)C(C)C)C(C)C [D-Piscidin 1 G13K] (H-[dF][dF][dH][dH][dI][dF][dR]G[dI][dV][dH][dV][dK][dK][dT][dI][dH][dR][dL][dV][dT]G-NH2) | 3.0 µM (≈ 7.93 µg/mL) | 5.9 µM (≈ 15.6 µg/mL) | 5.9 µM (≈ 15.6 µg/mL) | 5.9 µM (≈ 15.6 µg/mL) | 5.9 µM (≈ 15.6 µg/mL) | 5.2 µM (≈ 13.7 µg/mL) | 23.7 µM (≈ 62.6 µg/mL) | 23.7 µM (≈ 62.6 µg/mL) | 47.3 µM (≈ 125 µg/mL) | 11.8 µM (≈ 31.2 µg/mL) | 23.7 µM (≈ 62.6 µg/mL) | 11.8 µM (≈ 31.2 µg/mL) | 5.9 µM (≈ 15.6 µg/mL) | 5.9 µM (≈ 15.6 µg/mL) | 5.9 µM (≈ 15.6 µg/mL) | 3.0 µM (≈ 7.93 µg/mL) | 5.9 µM (≈ 15.6 µg/mL) | 5.9 µM (≈ 15.6 µg/mL) | 21.1 µM (≈ 55.8 µg/mL) | 7.0 µM | 
2 | CC[C@@H](C)[C@@H](NC(=O)[C@@H](Cc1c[nH]cn1)NC(=O)[C@@H](Cc1c[nH]cn1)NC(=O)[C@@H](Cc1ccccc1)NC(=O)[C@H](N)Cc1ccccc1)C(=O)N[C@H](Cc1ccccc1)C(=O)N[C@H](CCCNC(=N)N)C(=O)NCC(=O)N[C@H](CCCCN)C(=O)N[C@@H](C(=O)N[C@H](Cc1c[nH]cn1)C(=O)N[C@@H](C(=O)NCC(=O)N[C@H](CCCCN)C(=O)N[C@@H](C(=O)N[C@@H](C(=O)N[C@H](Cc1c[nH]cn1)C(=O)N[C@H](CCCNC(=N)N)C(=O)N[C@H](CC(C)C)C(=O)N[C@@H](C(=O)N[C@@H](C(=O)NCC(N)=O)[C@H](C)O)C(C)C)[C@H](C)CC)[C@H](C)O)C(C)C)C(C)C [D-Piscidin 1 I9K] (H-[dF][dF][dH][dH][dI][dF][dR]G[dK][dV][dH][dV]G[dK][dT][dI][dH][dR][dL][dV][dT]G-NH2) | 3.0 µM (≈ 7.76 µg/mL) | 3.0 µM (≈ 7.76 µg/mL) | 3.0 µM (≈ 7.76 µg/mL) | 3.0 µM (≈ 7.76 µg/mL) | 1.5 µM (≈ 3.88 µg/mL) | 3.0 µM (≈ 7.76 µg/mL) | 24.2 µM (≈ 62.6 µg/mL) | 24.2 µM (≈ 62.6 µg/mL) | 48.3 µM (≈ 125 µg/mL) | 48.3 µM (≈ 125 µg/mL) | 48.3 µM (≈ 125 µg/mL) | 12.1 µM (≈ 31.3 µg/mL) | 6.0 µM (≈ 15.5 µg/mL) | 3.0 µM (≈ 7.76 µg/mL) | 3.0 µM (≈ 7.76 µg/mL) | 3.0 µM (≈ 7.76 µg/mL) | 3.0 µM (≈ 7.76 µg/mL) | 3.0 µM (≈ 7.76 µg/mL) | 30.5 µM (≈ 78.9 µg/mL) | 98 µM | Hemolytic activity Fold improvement in HC50 (human erythrocytes): 54 fold; Hemolytic activity HC50, 18 hours (Figure 8 comparison) (human erythrocytes; 18 hours at 37 °C, human red blood cells, Figure 8, 100% control 0.1% Triton-X 100): 115 µM

Source: publication PMC4014698 (Pharmaceuticals, 2014)
